Experimental data reported in patent publication US12448373B2, “Azetidinyl-acetamides as CXCR7 inhibitors” (CHEMOCENTRYX, INC., priority 2021, dated 2025).

The compounds below were run against T1, CXCR7 (Homo sapiens, UniProt P25106) (assay: CXCR7 β-arrestin recruitment assay in CHO-CXCR7 cells (ProLink/EA β-galactosidase complementation), induced by human SDF-1a). Details: assay buffer, SDF-1a at EC50 concentration.
T1 construct: expressed in transfected cells; host or cells: CHO cells (CHO-CXCR7), transgenes maintained with Hygromycin B and G418
T1 sequence (P25106 whole entry): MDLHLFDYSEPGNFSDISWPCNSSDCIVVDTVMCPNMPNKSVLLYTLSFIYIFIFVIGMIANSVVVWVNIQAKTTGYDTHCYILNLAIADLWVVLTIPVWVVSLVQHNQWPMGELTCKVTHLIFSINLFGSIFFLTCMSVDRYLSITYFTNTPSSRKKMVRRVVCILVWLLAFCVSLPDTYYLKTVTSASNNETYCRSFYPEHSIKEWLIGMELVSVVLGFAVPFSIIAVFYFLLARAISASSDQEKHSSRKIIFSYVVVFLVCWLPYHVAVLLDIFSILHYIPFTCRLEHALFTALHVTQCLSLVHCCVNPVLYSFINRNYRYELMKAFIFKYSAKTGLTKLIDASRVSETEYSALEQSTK
Format: cell-based
Description: CXCR7 is fused in frame with a small enzyme donor fragment ProLink and co-expressed in CHO cells stably expressing a fusion protein of β-arrestin and the larger, N-terminal deletion mutant of β-galactosidase (called enzyme acceptor or EA). Activation of the CXCR7 stimulates binding of β-arrestin to the ProLink-tagged CXCR7 and forces complementation of the two enzyme fragments, resulting in the formation of an active β-galactosidase enzyme. The β-galactosidase enzyme activity is measured with a substrate that generates fluorescence.
CHO-CXCR7 cells (0.22×10^6/mL) were cultured in growth medium (Ham's F-12 medium with 10% fetal bovine serum (FBS)), Hygromycin B (200 ug/mL) and G418 (250 ug/mL) were used to maintain the transgenes. The day before the assay, the cells were detached from culture dishes with 0.25% trypsin-EDTA (Corning, Catalog No. 25-053-CI), plated into 96 well plate (2.2×10^5 cells/mL, 100 μL/well) and incubated overnight at 37° C. with 5% CO2. On the day of the assay, cell culture medium was removed and 100 uL of assay buffer (PBS or FBS) was added to each well. 1 μL of compound that were serially diluted in DMSO was added to each well. 5 μL of human SDF-la (Pepro Tech, Catalog No. 300-28A, at EC50 concentration pre-determined on the same day) was then added and mixed to induce CXCR7-mediated β-arrestin recruitment. The plates were incubated for 1.5 hours at 37° C. The assay buffer was removed, 100 μL substrate solution was added and the reaction was carried out at 37° C. for 30 minutes. The substrate solution was prepared by mixing 100 mL Phosphate Buffer (1M, Sigma, Catalog No. P3619-1GA), 100 mL 10% Triton X 100 (Sigma, Catalog No. T8787.), 5 mL MgCl2 (1M, Sigma, Catalog No. M1028), 1.5 mL, β-mercaptoethanol (Gibco, Catalog No. 21985-023.). 3-carboxyumbelliferyl β-D-galactopyranoside (ThermoFisher Scientific, Catalo No. F2905) was added at 0.4 mM right before use. The reaction was then stopped by adding 50 μL of Stop Solution (2.1% w/v Na2CO3) to each well. Fluorescence intensity was measured with a FlexStation 3 microplate reader (Molecular Devices) with the following setting—excitation: 360 nm, emission: 465 nm, manual Gain: 55. IC50 values were calculated with GraphPad Prism using 3 parameter nonlinear regression.
`CC(C)(NC(=O)CC1(NC(=O)c2cc(-c3ccc(F)cc3F)on2)CN(C2CCCCC2)C1)c1nccs1` [Example 1.276] gave an IC50 of 5 to 100 nM.
`CC1(C)CC(N2CC(CC(=O)NC(C)(C)c3ccccn3)(NC(=O)c3cc(-c4ccc(F)cc4F)on3)C2)CCO1` (centres unmarked) [Example 1.013] was tested, and the IC50 was 5 to 100 nM.
In the case of `CC1(C)CCC(N2CC(CC(=O)NC(C)(C)c3cc(Cl)cc(Cl)c3)(NC(=O)c3cc(-c4ccc(F)cc4F)on3)C2)CC1` [Example 1.105], the IC50 is reported as under 5 nM.
With `O=C(CC1(NC(=O)c2cc(-c3ccc(F)cc3F)on2)CN(CC2CC2)C1)NC1(c2ncccn2)CC1` [Example 1.334] the IC50 was 5 to 100 nM.
For `CC(C)(NC(=O)CC1(NC(=O)c2cc(-c3ccc(F)cc3F)on2)CN([C@H]2CC[C@@](C)(O)CC2)C1)c1ccncc1` [Example 1.180], the IC50 was under 5 nM.
For `CC(C)(NC(=O)CC1(NC(=O)c2cc(-c3ccc(F)cc3F)on2)CN(CC2CCOC2)C1)c1ccccn1` (centres unmarked) [Example 1.223], the IC50 was 100 to 1000 nM.
With `COc1cc(F)cc(C(C)(C)NC(=O)CC2(NC(=O)c3cc(-c4ccc(F)cc4F)on3)CN([C@H]3CC[C@@](C)(O)CC3)C2)c1` [Example 1.169] the IC50 was under 5 nM.
`CC(C)(O)CCN1CC(CC(=O)NC(C)(C)c2cccc(F)c2)(NC(=O)c2cc(-c3ccc(F)cc3F)on2)C1` [Example 1.229] was tested, and the IC50 was 5 to 100 nM.
`COc1cc(C(C)(C)NC(=O)CC2(NC(=O)c3cc(-c4ccc(F)cc4F)on3)CN([C@H]3CC[C@@](C)(O)CC3)C2)ccn1` [Example 1.188] was tested, and the IC50 was under 5 nM.
For `Cc1cc(C)nc(C(C)(C)NC(=O)CC2(NC(=O)c3cc(-c4ccc(F)cc4F)on3)CN(CC(C)C)C2)n1` [Example 1.037], the IC50 was 5 to 100 nM.
`C[C@H](NC(=O)CC1(NC(=O)c2cc(-c3ccc(F)cc3F)on2)CN(CC2CC2)C1)c1ccccn1` [Example 1.324] was tested, and the IC50 was 1000 to 20000 nM.
`CC(C)(NC(=O)CC1(NC(=O)c2cc(-c3ccc(F)cc3F)on2)CN(C2CCCC2)C1)c1ccccn1` [Example 1.094] was tested, and the IC50 was 5 to 100 nM.
`Cc1cc(C)nc(C(C)(C)NC(=O)CC2(NC(=O)c3nnc(-c4ccc(F)cc4F)s3)CN(C3CCCCC3)C2)n1` [Example 1.070] was tested, and the IC50 was under 5 nM.
For `CC(C)(NC(=O)CC1(NC(=O)c2cn(-c3ccc(F)cc3)nn2)CN([C@H]2CC[C@](C)(O)CC2)C1)c1ccccc1` [Example 1.084], the IC50 was 100 to 1000 nM.
In the case of `Cc1cc(Cl)cc(C(C)(C)NC(=O)CC2(NC(=O)c3nnc(-c4ccc(F)cc4F)s3)CN([C@H]3CC[C@](C)(O)CC3)C2)n1` [Example 1.006], the IC50 is reported as under 5 nM.
`CC(C)(O)CN1CC(CC(=O)NC(C)(C)c2ccc(F)cc2F)(NC(=O)c2cc(-c3ccc(F)cc3F)on2)C1` [Example 1.264] gave an IC50 of 1000 to 20000 nM.
In the case of `Cc1cc(C(C)(C)NC(=O)CC2(NC(=O)c3cc(-c4ccc(F)cc4F)on3)CN(CC3(O)CCC3)C2)ccn1` [Example 1.150], the IC50 is reported as 100 to 1000 nM.
With `COc1cccc(C(C)(C)NC(=O)CC2(NC(=O)c3cc(-c4ccc(F)cc4F)on3)CN(C3CCCCC3)C2)n1` [Example 1.272] the IC50 was 5 to 100 nM.
For `CC(C)(NC(=O)CC1(NC(=O)c2cc(-c3ccc(F)cc3F)on2)CN([C@H]2CC[C@@](C)(O)CC2)C1)c1ccc(F)c(F)c1` [Example 1.256], the IC50 was 5 to 100 nM.
With `CC(C)(NC(=O)CC1(NC(=O)c2cc(-c3ccc(F)cc3F)on2)CN([C@H]2CC[C@@](C)(O)CC2)C1)c1cccnc1` [Example 1.193] the IC50 was 5 to 100 nM.
`Cc1cccc(C(C)(C)NC(=O)CC2(NC(=O)c3cc(-c4ccc(F)cc4F)on3)CN([C@H]3CC[C@@](C)(O)CC3)C2)c1` [Example 1.214] was tested, and the IC50 was under 5 nM.
For `CC(C)(NC(=O)CC1(NC(=O)c2cc(-c3ccc(F)cc3F)on2)CN([C@H]2CC[C@](C)(O)CC2)C1)c1ncccc1F` [Example 1.021], the IC50 was 5 to 100 nM.
`COc1cc(Cl)cc(C(C)(C)NC(=O)CC2(NC(=O)c3cc(-c4ccc(F)cc4F)on3)CN([C@H]3CC[C@](C)(O)CC3)C2)c1` [Example 1.165] showed an IC50 of under 5 nM.
Work on `CC(C)(NC(=O)CC1(NC(=O)c2cc(-c3ccc(F)cc3F)on2)CN([C@H]2CC[C@](C)(O)CC2)C1)c1ccncn1` [Example 1.181] yielded an IC50 of 5 to 100 nM.
With `COc1ccc(F)cc1C(C)(C)NC(=O)CC1(NC(=O)c2cc(-c3ccc(F)cc3F)on2)CN([C@H]2CC[C@](C)(O)CC2)C1` [Example 1.266] the IC50 was under 5 nM.
Compound `CC(C)(NC(=O)CC1(NC(=O)c2cc(-c3ccc(F)cc3F)on2)CN(CC2CC2)C1)c1cccc(Cl)c1` [Example 1.113] has an IC50 of 5 to 100 nM.
With `Cc1cc(C(C)(C)NC(=O)CC2(NC(=O)c3cc(-c4ccc(F)cc4F)on3)CN([C@H]3CC[C@](C)(O)CC3)C2)nc(C)n1` [Example 1.079] the IC50 was 5 to 100 nM.
Work on `CC(C)(NC(=O)CC1(NC(=O)c2cc(-c3ccc(F)cc3F)on2)CN([C@H]2CC[C@@](C)(O)CC2)C1)c1ccnc(C2CC2)c1` [Example 1.146] yielded an IC50 of 5 to 100 nM.
`Cc1cc(C)nc(C(C)(C)NC(=O)CC2(NC(=O)c3nnc(-c4ccc(F)cc4F)s3)CN(CC3CC3)C2)n1` [Example 1.030] was tested, and the IC50 was 5 to 100 nM.
`COc1cc(F)cc(C(C)(C)NC(=O)CC2(NC(=O)c3cc(-c4ccc(F)cc4F)on3)CN([C@H]3CC[C@](C)(O)CC3)C2)c1` [Example 1.170] gave an IC50 of 5 to 100 nM.
`CC(C)(NC(=O)CC1(NC(=O)c2cc(-c3ccc(F)cc3F)on2)CN([C@H]2CC[C@](C)(O)CC2)C1)c1ccc(F)c(F)c1` [Example 1.257] was tested, and the IC50 was 5 to 100 nM.
In the case of `CC(C)(NC(=O)CC1(NC(=O)c2cc(-c3ccc(F)cc3F)on2)CN(CC2CCCC2)C1)c1ccccn1` [Example 1.029], the IC50 is reported as 5 to 100 nM.
`CC(C)(NC(=O)CC1(NC(=O)c2cc(-c3ccc(F)cc3F)on2)CN([C@H]2CC[C@](C)(O)CC2)C1)c1cccc(C2CC2)c1` [Example 1.144] showed an IC50 of 5 to 100 nM.
With `COc1cc(OC)nc(C(C)(C)NC(=O)CC2(NC(=O)c3nnc(-c4ccc(F)cc4F)s3)CN([C@H]3CC[C@](C)(O)CC3)C2)c1` [Example 1.342] the IC50 was 5 to 100 nM.
For `CC(C)(NC(=O)CC1(NC(=O)c2cc(-c3ccc(F)cc3F)on2)CN(C2CCC3(CC2)COC3)C1)c1ccccn1` [Example 1.294], the IC50 was under 5 nM.
Compound `CC(C)(NC(=O)CC1(NC(=O)c2cc(-c3ccc(F)cc3F)on2)CN(CCC(F)(F)F)C1)c1ccccn1` [Example 1.019] has an IC50 of 100 to 1000 nM.
Compound `CC(C)(NC(=O)CC1(NC(=O)c2cc(-c3ccc(F)cc3F)on2)CN([C@H]2CC[C@@](C)(O)CC2)C1)c1cccc(OC(F)(F)F)c1` [Example 1.197] has an IC50 of under 5 nM.
In the case of `CC(C)(NC(=O)CC1(NC(=O)c2cc(-c3ccc(F)cc3F)on2)CN([C@H]2CC[C@](C)(O)CC2)C1)c1cccc(OC(F)(F)F)c1` [Example 1.198], the IC50 is reported as 5 to 100 nM.
Work on `CC(C)(NC(=O)CC1(NC(=O)c2cc(-c3ccc(F)cc3F)on2)CN(C2CCCCC2)C1)c1cccc(C(F)(F)F)c1` [Example 1.271] yielded an IC50 of 100 to 1000 nM.
`CC(C)(NC(=O)CC1(NC(=O)c2cc(-c3ccc(F)cc3F)on2)CN([C@H]2CC[C@](C)(O)CC2)C1)c1cc(Cl)ccc1Cl` [Example 1.088] showed an IC50 of under 5 nM.
With `CC(C)(O)CN1CC(CC(=O)NC(C)(C)c2cc(Cl)ccc2F)(NC(=O)c2cc(-c3ccc(F)cc3F)on2)C1` [Example 1.134] the IC50 was 5 to 100 nM.
Work on `C[C@]1(O)CC[C@H](N2CC(CC(=O)NC3(c4cccc(Cl)c4)COC3)(NC(=O)c3cc(-c4ccc(F)cc4F)on3)C2)CC1` [Example 1.103] yielded an IC50 of 5 to 100 nM.
With `Cc1cc(Cl)cc(C(C)(C)NC(=O)CC2(NC(=O)c3cc(-c4ccc(F)cc4F)on3)CN([C@H]3CC[C@](C)(O)CC3)C2)n1` [Example 1.003] the IC50 was under 5 nM.
In the case of `COc1cccc(C(C)(C)NC(=O)CC2(NC(=O)c3cc(-c4ccc(F)cc4F)on3)CN([C@H]3CC[C@](C)(O)CC3)C2)c1` [Example 1.239], the IC50 is reported as 5 to 100 nM.
Work on `CC(C)(NC(=O)CC1(NC(=O)c2cc(-c3ccc(F)cc3F)on2)CN(CC2CCOCC2)C1)c1ccccn1` [Example 1.222] yielded an IC50 of 100 to 1000 nM.
With `C[C@]1(O)CC[C@H](N2CC(CC(=O)NCc3cccc4[nH]ccc34)(NC(=O)c3cc(-c4ccc(F)cc4F)on3)C2)CC1` [Example 1.100] the IC50 was under 5 nM.
`CC(C)(NC(=O)CC1(NC(=O)c2cc(-c3ccc(F)cc3F)on2)CN(C2CC2)C1)c1ccccn1` [Example 1.313] was tested, and the IC50 was 5 to 100 nM.
For `Cc1ccnc(C(C)(C)NC(=O)CC2(NC(=O)c3cc(-c4ccc(F)cc4F)on3)CN([C@H]3CC[C@](C)(O)CC3)C2)n1` [Example 1.202], the IC50 was under 5 nM.
In the case of `CC(C)(NC(=O)CC1(NC(=O)c2noc(-c3ccc(F)cc3F)n2)CN([C@H]2CC[C@](C)(O)CC2)C1)c1ccccc1` [Example 1.078], the IC50 is reported as 100 to 1000 nM.
With `Cc1cc(C(C)(C)NC(=O)CC2(NC(=O)c3cn(-c4ccc(F)cc4F)nn3)CN(C3CCCCC3)C2)ccn1` [Example 1.074] the IC50 was 5 to 100 nM.
